Data set [1] can be described thus: pKa of amine lipid by TNS fluorescence. The following applies: probe TNS (6-(p-toluidino)-2-naphthalenesulfonic acid sodium salt), unformulated amine lipid in ethanol, sodium phosphate buffers -9.0. The class given is physicochemical. In short, it runs like this:
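Unformulated amine lipid, about 100 μM final, in 0.1 M sodium phosphate buffers spanning pH 4.5–9.0 with TNS. Fluorescence read at ex 321/em 448 nm; normalized data fitted sigmoidally to give pKa.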

A short description of data set [2]: LNP average particle size and polydispersity by dynamic light scattering. The class given is physicochemical. The following applies: Table 13; LNP sgRNA:Cas9 mRNA 1:2 w/w, N/P 6.0. The method in brief:
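LNPs were diluted in PBS to a count rate of about 200-400 kcps and measured by DLS on a Zetasizer. Size is the intensity-weighted Z-average diameter, reported with number-average diameter, and the polydispersity index describes the spread of sizes around the mean.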

A short description of data set [3]: RNA encapsulation efficiency of LNP (Ribogreen fluorescence assay). The class given is physicochemical. The following applies: Table 13; LNP sgRNA:Cas9 mRNA 1:2 w/w, N/P 6.0. The method in brief: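 LNP samples diluted in 1× TE with or without 0.2% Triton-X 100 for total or free RNA, stained ~10 min at room temperature in the dark with RiboGreen; fluorescence ex 488/em 525 nm against RNA standard curves. Encapsulation efficiency = (Total RNA−Free RNA)/Total RNA.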

For a further data set, the system named is TTR in HUH7 cells. Briefly: In vitro editing in HUH7 cells, LNP with Cas9 mRNA and sgRNA G000502, NGS. Type of data set: cell-based, human. The settings on record: Table 14; 2000 ng RNA per well, cells harvested 6 hours post-transfection, biological duplicate, G000502 target locus. The protocol:
A series of compounds based on Compound 46 that vary by the inclusion of a C4-12 alkyl at the R^3 position of Formula (IA) (as illustrated in FIG. 13A) were tested for in vitro editing. The human hepatocellular carcinoma cell line […] (Japanese Collection of Research Bioresources Cell Bank, Cat. JCRB0403) was cultured in DMEM media supplemented with 10% fetal bovine serum and 1% Penicillin-Streptomycin. Cells were plated at a density of 20,000 cells/well in a 96-well plate 24 hours prior to transfection (˜80% confluent at time of transfection). The LNPs were formulated at a 1:2 w/w ratio of sgRNA and Cas9 mRNA using the cross flow procedure with lipid molar compositions as described in Table 13 at an N/P ratio of 6.0. LNP compositions were analyzed for average particle size, polydispersity (pdi), total RNA content and encapsulation efficiency of RNA as described in Example 115. Analysis of average particle size, polydispersity (PDI), total RNA content and encapsulation efficiency of RNA are shown in Table 13. LNPs were diluted into media, incubated for 5 minutes at 37 C and pipetted onto cells at a dose of 2000 ng RNA per well. Each condition was assayed in biological duplicate. Cells were harvested post-transfection at 6 hours. Genomic DNA was extracted using 50 μL/well BuccalAmp DNA Extraction solution (Epicentre, Cat. QE09050) according to manufacturer's protocol. All DNA samples were subjected to PCR and subsequent NGS analysis for editing at the G000502 target locus, as described above. As shown in Table 14 and FIG. 13B, all compounds tested were efficacious for in vitro editing.

Another data set has as its system mouse TTR. Briefly: Serum TTR ELISA in mice after LNP delivery. The class given is in vivo. The settings on record: mouse serum, relative to TSS control of same experiment. The method in brief: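 Female CD-1 mice received LNP at 0.1 mpk unless noted; serum was collected 6 or 7 days later. Total serum TTR was measured by mouse prealbumin ELISA at 10,000- and/or 2,500-fold dilution and is expressed as a percentage of vehicle control.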
Background: In an ELISA, binding on a coated surface is turned into a signal by an enzyme label.

Molecules are shown by their SMILES.

As a reminder, the pKa is the negative logarithm of the acid dissociation constant.

Turning to `CCCCC/C=C\C/C=C\CCCCCCCC(=O)OCC(COC(=O)CCCCCCC/C=C\C/C=C\CCCCC)OC(=O)CCC(CCCCCCCCCCCC)OC(=O)NCCN1CCCC1` (stereo not shown) [Compound 46, 2-((4-(((2-(pyrrolidin-1l-yl)ethyl)carbamoyl)oxy)hexadecanoyl)oxy)propane-1,3-diyl (9Z,9′Z,12Z,12′Z)-bis(octadeca-9,12-dienoate)], in data set [1], the pKa turned out to be 6.16. Also, in data set [2], the “Number Average [nm]” value stood at 76.76 nm, the PDI came out at 0.003 and the “Z-Ave Size (nm)” value is 94.54 nm. Moreover, the “% E” value in data set [3] was found to be 99%. For the same compound, the Editing in the data set on TTR in HUH7 cells is recorded as 63.7%.
Regarding `CCCCC/C=C\C/C=C\CCCCCCCC(=O)OCC(COC(=O)CCCCCCC/C=C\C/C=C\CCCCC)OC(=O)CCC(CCCCCCC)OC(=O)NCCN1CCCC1` (stereo not shown) [Compound 76, 2-((4-(((2-(pyrrolidin-1l-yl)ethyl)carbamoyl)oxy)undecanoyl)oxy)propane-1,3-diyl (9Z,9′Z,12Z,12′Z)-bis(octadeca-9,12-dienoate)], the pKa in data set [1] turned out to be 6.74. The “Serum TTR % TSS” value is 69.72 % TSS with mouse TTR (dose 0.03 mpk) and 12.79 % TSS in the data set with mouse TTR (dose 0.1 mpk). The Editing with TTR in HUH7 cells stood at 61.2%.
Take `CCCCC/C=C\C/C=C\CCCCCCCC(=O)OCC(COC(=O)CCCCCCC/C=C\C/C=C\CCCCC)OC(=O)CCC(CCCC)OC(=O)NCCN1CCCC1` (stereo not shown) [Compound 85, 2-((4-(((2-(pyrrolidin-1-yl)ethyl)carbamoyl)oxy)octanoyl)oxy)propane-1,3-diyl (9Z,9′Z,12Z,12′Z)-bis(octadeca-9,12-dienoate)]: the pKa in data set [1] is 7.02. Besides, in data set [2], the “Number Average [nm]” value is on record as 93.05 nm, the PDI is reported as 0.045 and the “Z-Ave Size (nm)” value was determined as 117.1 nm. For the same compound, in data set [3], the “% E” value is 96%. The compound further registered an Editing in the data set with TTR in HUH7 cells of 66.4%.
